{"source": "patent US20080058391A1", "about": "“NOVEL COMPOUNDS” (GLAXO GROUP LIMITED, priority 2006, published 2008)", "system": "male Sprague Dawley rats", "assay": "Rat mustard oil model of visceral pain", "type": "in vivo", "settings": "data combined from two studies", "procedure": "All behavioural responses consistent with the presence of pain were determined following intra rectal injection of mustard oil in male Sprague Dawley rats. Typical behavioural responses consistent with the presence of pain following intra-colonic mustard oil injection include: arching, abdominal lifting, abdominal tensing, stretching, extending the rear leg (when lying down), raising and lowering the testicles, tip-toeing and writhing.\nMale Sprague Dawley rats (130 g-160 g) were briefly sedated with 50% oxygen/50% carbon dioxide and 0.2 ml of 3% mustard oil injected into the colorectum, 1.5 cm from the anus. The anus was plugged with vaseline and animals placed in observational cages to which they had previously been acclimatised for 45 minutes prior to mustard oil injection. The number of visceral pain related behaviours, which consisted primarily of abdominal arching, were counted over a 25 minute period and the animals culled by cervical dislocation.\nIn separate studies, the effects of alosetron (0.1, 0.3 and 1.0 mg/kg n=10 per group), gabapentin (10, 30 and 100 mg/kg n=10 per group) and amitriptyline (3, 10 and 30 mg/kg n=9-10 per group) or vehicle (saline for alosetron and amitriptyline 10% 1-methyl-2-pyrolidone in saline for gabapentin n=10 per study) given sub cutaneously 15 minutes prior to injection of 3% mustard oil were examined on pain behaviour. Results are expressed as mean reduction in percentage of behaviours compared to vehicle treated animals and were statistically compared to vehicle treated animals using a one way ANOVA with Dunnett's comparison, p<0.05 considered significant.\nThe effect of the compound of Example 1 (0.1, 0.3, 1.0, 3.0, 10 and 30 mg/kg, n 9-20 per dosage) or vehicle (1% methyl cellulose, n=20) given orally 60 minutes prior to injection of mustard oil (3% mustard oil, 70% ethanol in saline) were examined on pain behaviour. The total number of visceral pain related behaviours, which consisted primarily of abdominal arching, were counted over a 25 minute period and the animals culled by cervical dislocation. Behaviours were normalised as the percentage of the vehicle group mean and expressed as mean percentage reductions. Data was combined from two studies and normalised as the percentage of the vehicle group mean for each individual study and expressed as a mean percentage reduction for both studies. Percentage reduction of behaviours compared to vehicle treated animals were analysed statistically using a one way ANOVA with Dunnett's comparison, p<0.05 considered significant.", "note": "Where a name gives a salt, the structure may show the parent alone."}
{"smiles": "CC(C)(NCc1cc(-c2ccc(C(F)(F)F)cc2)ccn1)C(N)=O", "note": "[Example E1, 2-Methyl-N^2-({4-[4-trifluoromethyl)phenyl]-2-pyridinyl}methyl)alaninamide hydrochloride]", "values": [{"measurement": "reduction in behaviours compared to vehicle treated animals", "setting": "0.1 mg/kg orally 60 minutes prior to mustard oil", "value": 16, "unit": "%"}, {"measurement": "reduction in behaviours compared to vehicle treated animals", "setting": "0.3 mg/kg orally 60 minutes prior to mustard oil", "value": 24, "unit": "%"}, {"measurement": "reduction in behaviours compared to vehicle treated animals", "setting": "1.0 mg/kg orally 60 minutes prior to mustard oil", "value": 41, "unit": "%"}, {"measurement": "reduction in behaviours compared to vehicle treated animals", "setting": "3.0 mg/kg orally 60 minutes prior to mustard oil", "value": 64, "unit": "%"}, {"measurement": "reduction in behaviours compared to vehicle treated animals", "setting": "10 mg/kg orally 60 minutes prior to mustard oil", "value": 76, "unit": "%"}, {"measurement": "reduction in behaviours compared to vehicle treated animals", "setting": "30 mg/kg orally 60 minutes prior to mustard oil", "value": 85, "unit": "%"}]}
